From PMC7614749 (Chemistry (Weinheim an der Bergstrasse, Germany), 2023)

Molecular target: T1, transketolase (TK) (Zea mays, UniProt Q7SIC9)
T1 sequence (Q7SIC9 1-675): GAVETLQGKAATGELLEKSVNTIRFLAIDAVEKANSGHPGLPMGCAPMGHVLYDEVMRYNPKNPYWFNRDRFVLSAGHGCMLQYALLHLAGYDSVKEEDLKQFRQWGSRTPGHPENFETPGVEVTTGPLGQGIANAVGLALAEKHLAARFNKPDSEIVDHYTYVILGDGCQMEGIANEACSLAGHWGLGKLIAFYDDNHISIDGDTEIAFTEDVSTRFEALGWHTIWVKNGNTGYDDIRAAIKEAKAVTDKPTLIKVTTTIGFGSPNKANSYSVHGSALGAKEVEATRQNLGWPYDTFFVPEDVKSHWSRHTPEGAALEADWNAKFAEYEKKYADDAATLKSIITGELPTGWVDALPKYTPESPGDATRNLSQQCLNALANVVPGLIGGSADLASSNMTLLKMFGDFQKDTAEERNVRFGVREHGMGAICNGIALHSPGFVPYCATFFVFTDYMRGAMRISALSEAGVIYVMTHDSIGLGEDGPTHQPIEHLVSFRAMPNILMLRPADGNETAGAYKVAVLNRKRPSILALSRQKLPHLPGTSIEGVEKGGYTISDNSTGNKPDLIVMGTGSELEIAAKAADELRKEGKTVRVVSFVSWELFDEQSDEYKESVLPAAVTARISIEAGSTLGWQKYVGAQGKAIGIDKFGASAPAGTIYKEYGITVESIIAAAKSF
Test: in vitro dose-response enzymatic activity assay
Format: biochemical
Details: read-out: enzymatic assay / IC50

C/C=C1/CC2=C(C(=O)OC2=O)[C@H](CCC)[C@H](O)C(=O)C[C@@H]1O [compound 6, cornexistin]
IC50: 50 ± 5 µM
